The source of these data is patent publication US20200069648A1, “HALOALLYLAMINE PYRAZOLE DERIVATIVE INHIBITORS OF LYSYL OXIDASES AND USES THEREOF” (Pharmaxis Ltd., priority 2017, published 2020).

pIC50: −log10 of the molar value. Structures can show the parent of a compound that is named as a salt.

Assay [1] addresses T1, Human LOXL2 (Homo sapiens, UniProt Q9Y4K0).
T1 sequence (Q9Y4K0 26-774): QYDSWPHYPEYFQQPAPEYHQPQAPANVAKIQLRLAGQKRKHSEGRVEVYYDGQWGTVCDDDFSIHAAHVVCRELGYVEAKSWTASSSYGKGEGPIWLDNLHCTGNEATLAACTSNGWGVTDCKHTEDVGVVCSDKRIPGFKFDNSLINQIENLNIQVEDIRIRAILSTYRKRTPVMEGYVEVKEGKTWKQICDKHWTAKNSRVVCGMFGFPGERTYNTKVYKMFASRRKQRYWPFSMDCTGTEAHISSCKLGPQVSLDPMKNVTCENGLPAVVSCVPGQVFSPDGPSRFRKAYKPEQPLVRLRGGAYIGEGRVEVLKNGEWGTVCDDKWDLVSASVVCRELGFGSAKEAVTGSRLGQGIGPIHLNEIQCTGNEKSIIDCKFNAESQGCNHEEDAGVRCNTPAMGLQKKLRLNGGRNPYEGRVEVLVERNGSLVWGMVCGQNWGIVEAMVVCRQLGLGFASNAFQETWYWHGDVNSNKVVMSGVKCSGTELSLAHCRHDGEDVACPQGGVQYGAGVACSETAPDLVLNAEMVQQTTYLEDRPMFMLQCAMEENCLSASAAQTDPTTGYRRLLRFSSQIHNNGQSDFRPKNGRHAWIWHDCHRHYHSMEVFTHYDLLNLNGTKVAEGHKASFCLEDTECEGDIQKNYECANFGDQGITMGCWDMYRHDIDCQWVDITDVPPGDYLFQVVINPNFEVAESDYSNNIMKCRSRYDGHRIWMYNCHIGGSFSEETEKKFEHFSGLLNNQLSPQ
Put plainly: LOXL2 amine oxidase inhibition, peroxidase-coupled Amplex Red assay. It is filed as biochemical. The settings on record: 30 min preincubation at 37° C., putrescine substrate. A digest of the protocol: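 Enzyme preincubated 30 min at 37 °C with compound (11-point curve) in 1.2 M urea, 50 mM borate pH 8.2 plus 1 μM mofegiline and 0.5 mM pargyline; putrescine at twice KM (10 mM for LOXL2), Amplex Red and HRP added. Fluorescence (565/590 nm) read every 2.5 min for 30 min; IC50 from kinetic slopes.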

Assay [2] addresses T2, Recombinant human MAO-B (Homo sapiens, UniProt P27338).
T2 construct: purchased Sigma Aldrich
T2 sequence (P27338 1-520): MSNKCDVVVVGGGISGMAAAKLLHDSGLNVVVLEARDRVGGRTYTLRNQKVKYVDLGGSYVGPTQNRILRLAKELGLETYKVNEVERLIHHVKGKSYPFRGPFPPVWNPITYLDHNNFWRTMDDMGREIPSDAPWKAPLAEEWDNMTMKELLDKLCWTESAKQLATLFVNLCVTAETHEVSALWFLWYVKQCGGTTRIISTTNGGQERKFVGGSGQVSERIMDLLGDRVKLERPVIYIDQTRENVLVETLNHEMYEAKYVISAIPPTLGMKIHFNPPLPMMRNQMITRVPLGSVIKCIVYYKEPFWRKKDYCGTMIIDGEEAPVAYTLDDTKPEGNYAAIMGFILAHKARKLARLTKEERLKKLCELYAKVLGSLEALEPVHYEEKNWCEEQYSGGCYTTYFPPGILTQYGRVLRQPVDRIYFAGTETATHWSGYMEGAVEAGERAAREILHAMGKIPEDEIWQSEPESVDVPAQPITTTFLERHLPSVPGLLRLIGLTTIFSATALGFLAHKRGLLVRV
Put plainly: Human recombinant MAO-B inhibition. The assay is classed as biochemical. The settings on record: benzylamine 100 μM. The procedure:
Method to Determine the Ability of Compounds of Formula I to Inhibit Human Recombinant MAO-B
The specificity of the compounds of this invention was tested by determining their ability to inhibit MAO-B activities in vitro. Recombinant human MAO-B (0.06 mg/mL; Sigma Aldrich) was used as source of MAO-B enzyme activities. The assay was performed in a similar way as for human SSAO/VAP-1 (Example 46) except, the substrate benzylamine was used at 100 μM.

As for `Cc1nn(C/C(F)=C/CN)c(C(C)O)c1Cc1ccc(S(=O)(=O)N(C)C)c(Cl)c1` (single isomer, unassigned) [Compound 52, (Z)-4-((1-(4-amino-2-fluorobut-2-en-1-yl)-5-(1-hydroxyethyl)-3-methyl-1H-pyrazol-4-yl)methyl)-2-chloro-N,N-dimethylbenzenesulfonamide hydrochloride], the pIC50 in assay [1] is over 6.00; in assay [2] it was under 4.52.

In the case of `Cc1nn(C/C(F)=C/CN)c(C(C)O)c1Cc1ccc(S(=O)(=O)N(C)C)c(Cl)c1` (single isomer, unassigned) [Compound 53, (Z)-4-((1-(4-amino-2-fluorobut-2-en-1-yl)-5-(1-hydroxyethyl)-3-methyl-1H-pyrazol-4-yl)methyl)-2-chloro-N,N-dimethylbenzenesulfonamide hydrochloride], the pIC50 was over 6.00 in assay [1] and under 4.52 in assay [2]. On the same counts, the results for `N#CCCN` [BAPN, β-aminopropionitrile, reference compound] are over 6.00 and under 4.00.

As for `CN(C)S(=O)(=O)c1ccc(-c2cnn(C/C(F)=C/CN)c2)cc1` [Compound 1, (Z)-4-(1-(4-amino-2-fluorobut-2-en-1-yl)-1H-pyrazol-4-yl)-N,N-dimethyl benzenesulfonamide hydrochloride], the pIC50 in assay [1] is over 6.00; in assay [2], under 5.00. On the same counts, the results for `Cc1nn(C/C(F)=C/CN)c(C)c1Cc1ccc(S(=O)(=O)N(C)C)cc1` [Compound 2, (Z)-4-((1-(4-amino-2-fluorobut-2-en-1-yl)-3,5-dimethyl-1H-pyrazol-4-yl)methyl)-N,N-dimethylbenzenesulfonamide hydrochloride] are over 6.00 and under 4.52. For the molecule `Cc1nn(C/C(F)=C/CN)c(C)c1Cc1ccc(S(=O)(=O)N(C)C)cc1Cl` [Compound 3, (Z)-4-((1-(4-amino-2-fluorobut-2-en-1-yl)-3,5-dimethyl-1H-pyrazol-4-yl)methyl)-3-chloro-N,N-dimethylbenzenesulfonamide hydrochloride], the pIC50 in assay [1] was over 6.00; in assay [2], under 4.52. On the same counts, the results for `Cc1nn(C/C(F)=C/CN)c(C)c1Cc1ccc(S(C)(=O)=O)cc1` [Compound 4, (Z)-4-(3,5-dimethyl-4-(4-(methylsulfonyl)benzyl)-1H-pyrazol-1-yl)-3-fluorobut-2-en-1-amine hydrochloride] are over 6.00 and under 4.52. With `Cc1nn(C/C(F)=C/CN)c(C)c1Cc1cccc(S(=O)(=O)N(C)C)c1` [Compound 5, (Z)-3-((1-(4-amino-2-fluorobut-2-en-1-yl)-3,5-dimethyl-1H-pyrazol-4-yl)methyl)-N,N-dimethyl benzenesulfonamide hydrochloride], the figures for the negative-log IC50 (pIC50) in assay [1] and in assay [2] were over 6.00 and under 4.52, respectively. With `Cc1nn(C/C(F)=C/CN)c(C)c1Cc1ccc(S(=O)(=O)N2CCOCC2)cc1` [Compound 6, (Z)-4-(3,5-dimethyl-4-(4-(morpholinosulfonyl)benzyl)-1H-pyrazol-1-yl)-3-fluorobut-2-en-1-amine hydrochloride], the negative logarithm of the IC50 (pIC50) in assay [1] was over 6.00; in assay [2] it was under 4.52. On the same counts, the results for `Cc1nn(C/C(F)=C/CN)c(C)c1Cc1ccc(S(=O)(=O)N2CCCC2)cc1` [Compound 7, (Z)-4-(3,5-dimethyl-4-(4-(pyrrolidin-1-ylsulfonyl)benzyl)-1H-pyrazol-1-yl)-3-fluorobut-2-en-1-amine hydrochloride] are over 6.00 and under 4.52. With `Cc1nn(C/C(F)=C/CN)c(C)c1Cc1ccc(S(=O)(=O)N(C)C(C)C)cc1` [Compound 8, (Z)-4-((1-(4-amino-2-fluorobut-2-en-1-yl)-3,5-dimethyl-1H-pyrazol-4-yl)methyl)-N-isopropyl-N-methylbenzenesulfonamide hydrochloride], the results for the negative-log IC50 (pIC50) in assay [1] and in assay [2] were over 6.00 and under 4.52, respectively. `Cc1nn(C/C(F)=C/CN)c(C)c1Cc1ccc(S(=O)(=O)N(C)C)c2ccccc12` [Compound 9, (Z)-4-((1-(4-amino-2-fluorobut-2-en-1-yl)-3,5-dimethyl-1H-pyrazol-4-yl)methyl)-N,N-dimethyl naphthalene-1-sulfonamide hydrochloride]: the negative logarithm of the IC50 (pIC50) is over 6.00 in assay [1] and under 5.00 in assay [2]. On to `Cc1nn(Cc2ccc(S(=O)(=O)N(C)C)cc2)c(C)c1C/C(F)=C/CN` [Compound 10, (Z)-4-((4-(4-amino-2-fluorobut-2-en-1-yl)-3,5-dimethyl-1H-pyrazol-1-yl)methyl)-N,N-dimethylbenzenesulfonamide hydrochloride], for which the figures for the pIC50 in assay [1] and in assay [2] were over 6.00 and under 5.00, respectively. On the same counts, the results for `Cc1nn(C/C(F)=C/CN)c(C)c1Cc1ccc(S(=O)(=O)NC(C)C)cc1` [Compound 11, (Z)-4-((1-(4-amino-2-fluorobut-2-en-1-yl)-3,5-dimethyl-1H-pyrazol-4-yl)methyl)-N-isopropyl benzenesulfonamide hydrochloride] are over 6.00 and under 4.52. On the same counts, the results for `Cc1nn(C/C(F)=C/CN)c(C)c1Cc1ccc(S(C)(=O)=O)cc1Cl` [Compound 12, (Z)-4-(4-(2-chloro-4-(methylsulfonyl)benzyl)-3,5-dimethyl-1H-pyrazol-1-yl)-3-fluorobut-2-en-1-amine hydrochloride] are over 6.00 and under 4.52.

Consider `CCc1nn(C/C(F)=C/CN)c(CC)c1Cc1ccc(S(=O)(=O)N(C)C)cc1` [Compound 13, (Z)-4-((1-(4-amino-2-fluorobut-2-en-1-yl)-3,5-diethyl-1H-pyrazol-4-yl)methyl)-N,N-dimethyl benzenesulfonamide hydrochloride], for which the pIC50 in assay [1] is over 6.00; in assay [2] it was under 4.52. On to `Cc1nn(C/C(F)=C/CN)c(C)c1Cc1ccc(C(=O)N(C)C)cc1` [Compound 14, (Z)-4-((1-(4-amino-2-fluorobut-2-en-1-yl)-3,5-dimethyl-1H-pyrazol-4-yl)methyl)-N,N-dimethylbenzamide hydrochloride], for which the pIC50 in assay [1] was over 5.00; in assay [2], under 4.52. In assay [1], `CC(C)c1nn(C/C(F)=C/CN)c(C(C)O)c1Cc1ccc(S(=O)(=O)N(C)C)c(Cl)c1` (centres unmarked) [Compound 59, (Z)-4-((1-(4-amino-2-fluorobut-2-en-1-yl)-5-(1-hydroxyethyl)-3-isopropyl-1H-pyrazol-4-yl)methyl)-2-chloro-N,N-dimethylbenzenesulfonamide hydrochloride] had a negative logarithm of the IC50 (pIC50) of over 6.00. The same measure, in the same setting: in the case of `CC(C)c1nn(C/C(F)=C/CN)c(C(C)C)c1Cc1ccc(S(=O)(=O)N(C)C)c(Cl)c1` [Compound 60, (Z)-4-((1-(4-amino-2-fluorobut-2-en-1-yl)-3,5-diisopropyl-1H-pyrazol-4-yl)methyl)-2-chloro-N,N-dimethylbenzenesulfonamide hydrochloride] it was over 6.00; in that of `Cc1nn(C/C(F)=C/CN)c(C(=O)N(C)C)c1Cc1ccc(S(=O)(=O)N(C)C)c(Cl)c1` [Compound 61, (Z)-1-(4-amino-2-fluorobut-2-en-1-yl)-4-(3-chloro-4-(N,N-dimethylsulfamoyl)benzyl)-N,N,3-trimethyl-1H-pyrazole-5-carboxamide hydrochloride], over 6.00. Still for that read-out and setting: in the case of `Cc1nn(C/C(F)=C/CN)c(C(=O)NC(C)(C)C)c1Cc1ccc(S(=O)(=O)N(C)C)c(Cl)c1` [Compound 62, (Z)-1-(4-amino-2-fluorobut-2-en-1-yl)-N-(tert-butyl)-4-(3-chloro-4-(N,N-dimethylsulfamoyl)benzyl)-3-methyl-1H-pyrazole-5-carboxamide hydrochloride] it was over 6.00.
